The text below walks through data of US4866040A, “Aminocarnitine directed pharmaceutical agents” (priority 1987, dated 1989).

For data set [1], the system named is platelet Ca-activated protease. The experiment in a line: inhibition of platelet Ca-activated protease. The format is biochemical. The following applies: final in-vitro conc. 1 mM. The source says: The following results were obtained for inhibition of platelet Ca-activated protease: […]
The subject of data set [2] is Ca-activated protease. Nature of the data set: in vitro inhibition of Ca-activated protease. In kind it is biochemical. The conditions noted are these: for % of Control (Ca-activated protease activity): in vitro, 100 ug; for % of Control (Ca-activated protease activity) after hydrolysis: 100ug, hydrolysis at 60° C., pH 2. From the text:
It has been shown that in vitro carnitylleucylargininal inhibits Ca-activated protease as well as leupeptin, viz.

In data set [3] the test system is muscle Ca-activated protease. The experiment in a line: in-vivo administration, inhibition of muscle Ca-activated protease. Also noted: species or system rats. The conditions noted are these: for % Inhibition of muscle Ca-activated protease: 2 hours post IP injection.
For data set [4] the following is noted: in vivo, po; cited from earlier work.
The conditions of data set [5]: active transport; cited from earlier work.

Square brackets hold non-standard residues; d marks the D form. Peptide text beside a SMILES is read from it. Cya = N[CH](CS(=O)(=O)O)C(=O)O

Consider “E-aminoadipic acid [E-aminoadipic acid (CDI treated)]”, for which the “% Inhibition of platelet Ca-activated protease” value in data set [1] is recorded as 0%.
carnitylleucylargininal: the “% of Control (Ca-activated protease activity)” value in data set [2] turned out to be 4.6%. Also, the “% Inhibition of muscle Ca-activated protease” value in data set [3] (19 umoles) was found to be 48%. Moreover, the “effectiveness per umole relative to leupeptin in inhibiting Ca-activated protease in skeletal muscle” value in data set [3] (injected into rats) is given as “about ten times more effective per umole”.
For the molecule carnitylleucylargininal dibutylacetal, the “% of Control (Ca-activated protease activity) after hydrolysis” value in data set [2] (0 time) is listed as 17%; in data set [2] (3 hours), 1.2%; in data set [2] (24 hours), 100%.
Take `C[N+](C)(C)C[C@H](N)CC(=O)[O-]` [aminocarnitine]: in data set [4], the “toxicity when fed orally” value is reported as “non-toxic”.
As for `CC(C)C[C@H](N)C(=O)N[C@H](C=O)CCCNC(=N)N` [leucylargininal, leucyl argininal], the “% Inhibition of platelet Ca-activated protease” value in data set [1] is on record as 94%.
Consider `CC(=O)N[C@@H](CC(C)C)C(=O)N[C@@H](CC(C)C)C(=O)N[C@H](C=O)CCCNC(=N)N` [leupeptin], for which the “% of Control (Ca-activated protease activity)” value in data set [2] was 7.9%. In data set [3] (74 umoles), the “% Inhibition of muscle Ca-activated protease” value is given as 20%. Moreover, in data set [1], the “% Inhibition of platelet Ca-activated protease” value was 98%.
For `CC(C)CC(NC(=O)C(N)CS(=O)(=O)O)C(=O)NC(C=O)CCCNC(=N)N` (stereo not drawn) [cysteicleucylargininal] (H-[Cya]-Leu-Arg-aldehyde; configuration not given here), the “% Inhibition of platelet Ca-activated protease” value in data set [1] was 98%.
On the same count and under the same terms, then `N[C@@H](CS(=O)(=O)O)C(=O)O` [Cysteic acid (CDI treated), cysteic acid], with 0%.
With `C[N+](C)(C)CC(O)CC(=O)[O-]` (stereo not shown) [carnitine], the “% of Control (Ca-activated protease activity)” value in data set [2] was determined as 84%. In addition, the “concentration in cardiac and skeletal muscle relative to plasma” value in data set [5] is 50-100 times.
